# Patent publication US20240118210A1, “FFN FLUORESCENCE RELEASE ASSAY (FFRA) AND METHODS OF USING SAME” (Duke University, priority 2021, published 2024)
# B1: PF4: 31.2 kDa protein synthesized primarily by megakaryocytes and stored in platelet alpha granules (protein, UniProt P02776 32-101, looked up)
# Platelet factor 4: EAEEDGDLQCLCVKTTSQVRPRHITSLEVIKAGPHCPTAQLIATLKNGRKICLDLQAPLYKKIIKKLLES
# Experiments:
# healthy donor platelets [1] = assay: FFN246 release from platelets activated with A23187 at varying FFN246 concentrations (Example 2, FIG. 1); format: cell-based; details: for MFI of platelet releasate, FFN246+A23187: A23187 45 min
# Description: Calcium (Ca) ionophores mobilize calcium ions from intracellular storage sites or transport it through the plasma membrane to increase the concentration of cytoplasmic calcium ions (Ca^2+) and thereby activate platelets. The Ca ionophore A23187 works by triggering release of Ca^2+ from the dense tubular system of platelets and is a potent activator of platelets. A23187 was used to test if FFN246 loaded platelets would release FFN246 into the supernatant upon activation.
# Platelets were then washed twice in buffer containing prostaglandin E1 (PGE1) and apyrase to minimize platelet activation. The washed platelets were resuspended in Mg^2+/Ca^2+ buffer without inhibitors. Washed platelets were then incubated with A23187 for 45 minutes, after which platelets were centrifuged for 10 minutes at 576×g. Fluorescence in the platelet releasate/supernatant was measured in a BMG Labtech Fluostar Optima fluorometer at an appropriate emission/excitation spectra. Gain was set using the FFN246 releasate for each concentration at 50% of maximum signal.
# healthy donor platelets [2] = assay: FFN246 release with platelet activation by several platelet agonists (Example 3, FIG. 2); format: cell-based; details: for MFI of platelet releasate, FFN246+agonist: platelets loaded with 50 μM FFN246, 45 min, A23187 10 μM, ADP 25 μM, ristocetin 73 μM, collagen 63 nM, IIa 278 nM, PAR4 peptide 200 μM, SFLLRN 100 μM
# Protocol: To determine if FFN246 loaded platelets release FFN246 with other platelet agonists and receptor mechanisms, FFN246 release was examined by incubating platelets with several platelet secretogogues, including collagen, IIa, PAR4, SFLLRN. […] Collagen stimulates the GP VI receptor; ADP stimulates the P2Y1 and P2Y12 receptors; IIa activates PAR1 and PAR4 receptors; SFLLRN binds to the PAR1 receptor; PAR4 agonist binds the PAR4 receptor.
# To examine the effect of various platelet agonists on FFN246 release, healthy donor platelets were washed and incubated with and without FFN246 (50 μM) for 30 minutes, followed by the addition of 1 mM imipramine for 10 minutes to block further reuptake. Platelets were then incubated with the various conditions: (1) A23187 10 μM; (2) buffer alone; (3) ADP 25 μM; (4) ristocetin 73 μM; (5) collagen 63 nM; (6) IIa 278 nM; (7) PAR4 peptide 200 μM; (8) SFLLRN 100 μM: and (9) buffer only platelets+A23187 (10 μM) for 45 minutes. Following incubation with agonists, platelets were centrifuged for 10 minutes at 576×g. Fluorescence in the platelet releasate (i.e. supernatant) was measured in a BMG Labtech Fluostar Optima fluorometer at an appropriate emission/excitation spectra. Gain was set using the FFN246 releasate for each concentration at 50% of maximum signal.
# [3] = test system: healthy donor washed platelets; assay: FFN246 release on platelet activation with HIT-like monoclonal antibody KKO (Example 4, FIG. 3); format: cell-based; details: for MFI of platelet releasate, FFN246+agonist or antibody, no heparin: platelets loaded with 50 μM FFN246, 45 min, collagen 63 nM, SFLLRN 100 μM, KKO alone 25 μg/mL
# Protocol: To examine the effect of various platelet agonists on FFN246 release, healthy donor washed platelets were incubated with 50 μM FFN246 for 30 minutes, followed by addition of 1 mM imipramine for 10 minutes to block further reuptake. Platelets were then incubated with (1) A23187 10 μM; (2) collagen 63 nM; (3) SFLLRN 100 μM; (4) buffer; (5) KKO alone 25 μg/mL; (6) 0.5 U/mL heparin, 25 μg/ml KKO; (7) 10 U/mL heparin, 25 μg/mL KKO; (8) 0.5 U/mL heparin, 25 μg/mL TRA; and (9) A23187 10 μM (no FFN246). Incubation occurred for 45 minutes and platelets were centrifuged for 10 minutes at 576×g. Fluorescence in the platelet releasate was measured in a BMG Labtech Fluostar optima fluorometer at an appropriate emission/excitation spectra. Gain was set using the FFN246 releasate for each concentration at 50% of maximum signal.
# [4] = test system: healthy donor platelet rich plasma; assay: Release of FFN246 vs FFN102 from platelets exposed to calcium ionophore (Example 5, FIG. 4); format: cell-based; details: 100 μM FFN; for MFI of supernatant, FFN-loaded platelets incubated with ionophore: calcium ionophore
# Protocol: Drawing of donor blood and preparation of donor platelets. 10-20 cc of blood were drawn off into Acid-Citrate Dextrose. 20 mL of whole blood generated 8-10 mL of platelet rich plasma (PRP). The whole blood was spun down at 180 g for 20 minutes without using the brake. Donor PRP was separated and the needed PRP was calculated for each of the FFN246 and buffer conditions. 25 μM of FFN246 was added to the PRP condition labeled “FFN246”. 2.5 μL/mL of PGE1 was added to each PRP condition simultaneously. The mixture was incubated at 37° C. for 30 minutes in a H2O bath. For example, for 2.5 mL PRP, 6.25 μL PGE1 and 6.25 μL FFN246 were added. FFN246 was not added to the buffer PRP condition.
# The mixture was centrifuged at 700 g for 10 minutes with a brake at 22° C. to 26° C. The supernatant was discarded and the platelets were gently resuspended in PGE1/Apyrase buffer 1 mL per mL PRP for 15 minutes at room temperature. For example, 2.5 mL PRP was resuspended in 2.5 mL buffer. This was centrifuged at 700 g for 10 minutes at room temperature with a brake. The supernatant was discarded and FFN246 or platelets were resuspended into 2 mL/PRP of Ca/Mg buffer after using a pipette to completely remove PGE1/apyrase containing buffer above pellet. For example, 2.5 mL of platelets was resuspended with 5 mL of HT Ca/Mg.
# When various conditions were tested, such as NP40, buffer alone, buffer+heparin, SFLLRN, and additional conditions dictated by an experiment, the following aliquots were added: agonist, plasma, or antibody; buffer added to agonist to make 50 μL total; and 150 μL of FFN246 buffer labeled platelets. The conditions were allowed to develop for 1 hour at 37° C. on an agitator. The conditions were then centrifuged at 700 g for 10 mins at room temperature with a brake. 75 μL of the supernatant was added per well in triplicate. Fluorometer analysis was ran within 1 hour at appropriate excitation/emission spectra (FFN246 ex/em (nm): 392/427).
# The amount of FFN246 released from platelets was compared to that of FFN102, a dopaminergic fluorophore. Healthy donor platelet rich plasma was incubated with 100 μM of FFN246, FFN102, or buffer alone. Incubation and washing occurred per the protocol described in Example 1. Resuspended platelets were added either to calcium ionophore or buffer conditions for both FFN246 and FFN102. Supernatant was collected following centrifugation and analyzed using fluorometry.
# [5] = molecular target: dopamine transporters (DAT) (Homo sapiens, UniProt Q01959); details: relative to SERT uptake; cited from earlier work
# [6] = molecular target: norepinephrine transporters (NET) (Homo sapiens, UniProt P23975); details: relative to SERT uptake; cited from earlier work
# 5-HT receptors = details: cited from earlier work
# platelets = assay: PF4 addition to assay conditions (platelet activation); format: cell-based; details: 30 μg/ml; healthy donor and HIT samples; absence of heparin addition
# Description: PF4 addition to assay conditions. Platelet factor 4 (PF4) is a 31.2 kDa protein synthesized primarily by megakaryocytes and stored in platelet alpha granules. Positively charged PF4 forms ultra large immune complexes with negatively charged heparin in patients who develop pathological heparin induced thrombocytopenia (HIT).
# dopamine transporters (DAT), sequence (Q01959 whole entry, species assumed): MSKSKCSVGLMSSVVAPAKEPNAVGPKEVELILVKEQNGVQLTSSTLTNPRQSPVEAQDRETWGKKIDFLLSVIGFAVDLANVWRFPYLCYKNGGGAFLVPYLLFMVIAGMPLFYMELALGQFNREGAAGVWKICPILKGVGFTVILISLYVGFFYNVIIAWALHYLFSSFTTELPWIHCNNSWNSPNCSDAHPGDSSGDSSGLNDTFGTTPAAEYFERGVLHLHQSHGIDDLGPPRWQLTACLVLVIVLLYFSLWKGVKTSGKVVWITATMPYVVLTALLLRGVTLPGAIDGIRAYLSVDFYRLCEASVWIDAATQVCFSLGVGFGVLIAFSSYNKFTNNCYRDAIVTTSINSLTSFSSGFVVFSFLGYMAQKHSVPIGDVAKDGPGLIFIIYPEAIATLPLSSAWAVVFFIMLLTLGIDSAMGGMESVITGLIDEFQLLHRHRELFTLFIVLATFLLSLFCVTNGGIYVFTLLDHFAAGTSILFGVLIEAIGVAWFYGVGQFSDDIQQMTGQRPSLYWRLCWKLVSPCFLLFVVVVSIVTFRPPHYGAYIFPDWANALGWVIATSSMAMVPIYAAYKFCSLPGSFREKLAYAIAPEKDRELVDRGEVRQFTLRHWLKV
# norepinephrine transporters (NET), sequence (P23975 whole entry): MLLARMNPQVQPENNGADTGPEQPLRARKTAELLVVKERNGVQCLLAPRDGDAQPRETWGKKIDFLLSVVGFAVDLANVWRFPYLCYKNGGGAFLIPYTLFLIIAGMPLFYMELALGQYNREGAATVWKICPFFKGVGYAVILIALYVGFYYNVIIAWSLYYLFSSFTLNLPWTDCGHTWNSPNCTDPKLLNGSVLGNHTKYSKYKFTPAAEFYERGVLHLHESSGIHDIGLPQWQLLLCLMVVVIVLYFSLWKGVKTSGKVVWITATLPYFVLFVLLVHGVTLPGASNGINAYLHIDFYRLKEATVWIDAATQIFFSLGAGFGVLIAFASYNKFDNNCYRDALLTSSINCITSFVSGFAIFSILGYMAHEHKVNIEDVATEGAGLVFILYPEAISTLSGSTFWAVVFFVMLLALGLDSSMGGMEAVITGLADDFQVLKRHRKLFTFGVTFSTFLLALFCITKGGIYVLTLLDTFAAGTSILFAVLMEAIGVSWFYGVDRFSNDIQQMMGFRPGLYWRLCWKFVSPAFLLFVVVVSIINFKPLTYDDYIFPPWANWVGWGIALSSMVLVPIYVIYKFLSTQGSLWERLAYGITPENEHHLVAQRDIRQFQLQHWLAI
molecule,measurement,setting,value
CNc1ccc2oc(C[C@H]3O[C@@]4(CC[C@H]3C)O[C@H]([C@H](C)C(=O)c3ccc[nH]3)[C@H](C)C[C@H]4C)nc2c1C(=O)O [A23187],"MFI of platelet releasate, buffer+A23187 (no FFN246)",healthy donor platelets [1]; background paired with 10 uM FFN246 condition,"10,100"
same,"MFI of platelet releasate, buffer+A23187 (no FFN246)",healthy donor platelets [1]; background paired with 25 μM FFN246 condition,"4,707"
same,"MFI of platelet releasate, buffer+A23187 (no FFN246)",healthy donor platelets [1]; background paired with 50 μM FFN246 condition,"3,461"
same,"MFI of platelet releasate, buffer+A23187 (no FFN246)",healthy donor platelets [1]; background paired with 100 μM FFN246 condition,"1,676"
same,"MFI of platelet releasate, buffer+calcium ionophore (no FFN246)",healthy donor platelets [2]; buffer only platelets + A23187 10 μM,12526
same,"MFI of platelet releasate, FFN246+agonist",healthy donor platelets [2],31924
same,"MFI of platelet releasate, buffer+calcium ionophore (no FFN246)","[3]; A23187 10 μM, no FFN246",11399
same,"MFI of platelet releasate, FFN246+agonist or antibody, no heparin",[3]; A23187 10 μM,32674
"Nc1ncnc2c1ncn2[C@@H]1O[C@H](COP(=O)(O)OP(=O)(O)O)[C@@H](O)[C@H]1O [ADP, adenosine diphosphate]","MFI of platelet releasate, FFN246+agonist",healthy donor platelets [2],14013
Cl.NCCc1cc(=O)oc2cc(O)c(Cl)cc12 [FFN102],"MFI of supernatant, FFN-loaded platelets incubated with buffer",[4],7247+352
same,"MFI of supernatant, FFN-loaded platelets incubated with ionophore",[4],9845+352
NCCc1ccc2[nH]c3cccc(F)c3c(=O)c2c1 [FFN246],"MFI of platelet releasate, FFN246+A23187",healthy donor platelets [1]; 10 uM FFN246,"25,790"
same,"MFI of platelet releasate, FFN246+A23187",healthy donor platelets [1]; 25 μM FFN246,"36,124"
same,"MFI of platelet releasate, FFN246+A23187",healthy donor platelets [1]; 50 μM FFN246,"30,470"
same,"MFI of platelet releasate, FFN246+A23187",healthy donor platelets [1]; 100 μM FFN246,"35,405"
same,"MFI of platelet releasate, FFN246+buffer","healthy donor platelets [2]; 50 μM FFN246, no agonist",12199
same,"MFI of platelet releasate, FFN246+buffer","[3]; 50 μM FFN246, no agonist",11688
same,"MFI of supernatant, FFN-loaded platelets incubated with buffer",[4],"15,692+1203"
same,"MFI of supernatant, FFN-loaded platelets incubated with ionophore",[4],32901+448
same,"uptake by dopamine transporters (DAT), lower than SERT",[5],31%
same,"uptake by norepinephrine transporters (NET), lower than SERT",[6],23%
same,activity at 5-HT receptors,5-HT receptors,no activity at 5-HT receptors
same,binding to neurotransmitter receptors,5-HT receptors,does not bind to neurotransmitter receptors
SFLLRN,"MFI of platelet releasate, FFN246+agonist",healthy donor platelets [2],26703
same,"MFI of platelet releasate, FFN246+agonist or antibody, no heparin",[3]; A23187 10 μM,25426
collagen,"MFI of platelet releasate, FFN246+agonist",healthy donor platelets [2],24369
same,"MFI of platelet releasate, FFN246+agonist or antibody, no heparin",[3]; A23187 10 μM,24388
ristocetin,"MFI of platelet releasate, FFN246+agonist",healthy donor platelets [2],12247
B1,platelet activation by exogenous PF4 added to plasma conditions,platelets,led to platelet activation
